Laboratory results: US9713613B2, “Methods and compositions for the treatment of cancer and related hyperproliferative disorders” (priority 2007, dated 2017)

Tested on: DU145 cells
Experiment: Oligonucleotide microarray analysis (Affymetrix) of treated DU145 cells
Type: cell-based, human
Parameters: dose or concentration left out as unconfirmed
Conditions: DU145, 6 hrs
Procedure: Gene expression profile comparison of the drug-treated and untreated cells might reveal specific molecular pathways affected by fatostatin A. DU145 cells were treated with fatostatin A or DMSO alone, and extracted mRNA samples were analyzed by Affimetrix DNA microarrays mapping 33,000 genes (Table 1).
(§1) DU145 prostate cancer cells were treated with […] of fatostatin A or DMSO alone in the presence of 1 μg/mL of IGF1 for 6 hrs in a serum free medium, total RNA was extracted in a TRI reagent (Molecular Research Center) and further isolated by RNeasy Mini Kit (Qiagen). Purified mRNA was analyzed in Baylor College of Medicine Microarray Core Facility by Affymetrix Human Genome U133 Plus 2.0 Array consisting of almost 45,000 probe sets representing more than 39,000 transcripts derived from approximately 33,000 well-substantiated human genes (Affymetrix, Inc.).
As described herein, fatostatin inhibits the insulin-induced adipogenesis of 3T3-L1 cells and the serum-independent growth of DU145 cells (Choi et al., 2003). Gene expression profiles of drug-treated and untreated cells were compared to gain information about specific molecular pathways affected by fatostatin. DU145 cells were treated with fatostatin or DMSO alone, and the extracted mRNA samples were analyzed by Affymetrix DNA microarrays mapping 33,000 genes. Of those genes (all of which are available at the National Center for Biotechnology Information's GenBank database on the world wide web), transcription levels of 63 genes decreased at least 35% in response to fatostatin treatment (Table 5). Thirty-four of the affected genes were directly associated with fat or sterol synthesis, such as genes encoding biosynthetic enzymes, and 18 of the affected genes have been reported to be controlled by SREBPs (Horton et al., 2003). Downregulation of the affected SREBP-responsive genes was confirmed by RT-PCR experiments.
as §1, with “Oligonucleotide microarray analysis. DU145” for “DU145”, “fatostatin” for “fatostatin A”

SMILES: CCCc1cc(-c2nc(-c3ccc(C)cc3)cs2)ccn1 [Compound 1, 2-propyl-4-(4-p-tolylthiazol-2-yl)pyridine]
- transcription level (fold), famesyl-diphosphate farnesyltransferase (:AA872727): 0.5359
- transcription level (fold), mevalonate (diphospho) decarboxylase (A1189359): 0.3299
- transcription level (fold), stearoyl-CoA desaturase (delta-9-desaturase) (AB032261): 0.5743
- transcription level (fold), Homo sapiens putative sterol reductanse SR-1 (TM7SF2) (AF096304): 0.6156
- transcription level (fold), squalene epoxidase (AF098865): 0.5
- Decreased fold, Homo sapiens androgen-regulated short-chain dehydrogenaseneductase 1 (AF167438): 0.6598
- transcription level (fold), Homo sapiens androgen-regulated short-chain dehydrogenasereductase 1 (ARSDR1) (AF167438): 0.6598
- transcription level (fold), Cullin 4B (AI670819): 0.7071
- transcription level (fold), low density lipoprotein receptor (familial hypercholesterolemia) (AI861942): 0.5743
- transcription level (fold), ATP citrate lyase (AI971281): 0.5743
- Decreased fold, acetyl-CoA synthetase (AK000162): 0.5359
- transcription level (fold), acetyl-CoA synthetase (AK000162): 0.5359
- transcription level (fold), malic enzyme 1, NADP(+)-dependent, cytosolic (AL049699): 0.7071
- transcription level (fold), 3-hydroxy-3-methylglutaryl-Coenzyme A reductase (AL518627): 0.5
- transcription level (fold), human glucose transporter pseudogene (AL565516): 0.7071
- transcription level (fold), Tubulin, beta 4 (AL565749): 0.6598
- transcription level (fold), tubulin, alpha 1 (testis specific) (AL575074): 0.4665
- transcription level (fold), cytochrome P450, subfamily I (dioxin-inducible), polypeptide 1 (AU144855): 0.5
- transcription level (fold), lanosterol synthase (2,3-oxidosqualene-lanosterol cyclase) (AW084510): 0.5743
- transcription level (fold), cytochrome b5 outer mitochondrial membrane precursor (AW235051): 0.5743
- transcription level (fold), acetyl-Coenzyme A carboxylase alpha (B3855983): 0.5743
- transcription level (fold), NAD(P) dependent steroid dehydrogenase-like; H105e3 (BC000245): 0.4665
- transcription level (fold), acetyl-Coenzyme A acetyltransferase 2 (acetoacetyl Coenzyme A thiolase) (BC000408): 0.5743
- Decreased fold, acetyl-Coenzyme A acetyltransferase 2 (BC000408.1): 0.5743
- transcription level (fold), Homo sapiens, similar to tubulin, beta4 (BC002654): 0.6598
- transcription level (fold), isopentenyl-diphosphate delta isomerase (BC005247): 0.4665
- transcription level (fold), Homo sapiens, tubulin, beta5 (BC005838): 0.6598
- transcription level (fold), insulin induced gene 1 (BE300521): 0.3299
- transcription level (fold), dihydrolipoamide S-acetyltransferase (BF978872): 0.6598
- transcription level (fold), DNAJ (Hsp40) homolog, subfamily B, member 4 (BG252490): 0.7071
- Decreased fold, lanosterol synthase (D63807.1): 0.6156
- transcription level (fold), lanosterol synthase (2,3-oxidosqualene-lanosterol cyclase) (D63807.1): 0.6156
- transcription level (fold), lipin 1 (D80010.1): 0.5
- Decreased fold, sterol-05-desaturase (D85181.1): 0.5
- transcription level (fold), sterol-C5-desaturase (fungal ERG3, delta-5-desaturase)-like (D85181.1): 0.5
- transcription level (fold), Fatty-acid-Coenzyme A ligase, long-chain 3 (D89053.1): 0.7071
- transcription level (fold), prostaglandin E2 receptor (L32662.1): 0.5
- Decreased fold, 3-hydroxy-3-methylglutaryl-Coenzyme A reductase (HMG CoA R) (NM000859.1): 0.5
- Decreased fold, 3-hydroxy-3-methylglutaryl-Coenzyme A synthase 1 (HMG CoA S) (NM 0002130.1): 0.3536
- Decreased fold, mevalonate decarboxylase (MVD) (NM002461.1): 0.3299
- Decreased fold, squalene epoxidase (NM 003129.2): 0.5
- Decreased fold, Insulin induced gene 1 (INSIG1) (NM 005542.1): 0.3299
- Decreased fold, fatty acid desaturase 1 (NM005931.1): 0.6598
- Decreased fold, emopamil-bindingprotein (sterol isomerase) (NM006579.1): 0.6156
- Decreased fold, dihydrolipoamide S-acetyltransferase (NM0019312): 0.6598
- transcription level (fold), cytochrome P450, subfamily I (dioxin-inducible), polypeptide 1 (NM_00010): 0.3299
- transcription level (fold), mevalonate kinase (mevalonic aciduria) (NM_00043): 0.5
- transcription level (fold), nuclear receptor subfamily O, group B, member 1 (NM_00047): 0.5359
- transcription level (fold), low density lipoprotein receptor (familial hypercholesterolemia) (NM_00052): 0.6156
- transcription level (fold), cytochrome P450, 51 (lanosterol 14-alpha-demthylase) (NM_00078): 0.5359
- transcription level (fold), 3-hydroxy-3-methylglutaryl-Coenzyme A reductase (NM_00085): 0.4665
- transcription level (fold), ATP citrate lyase (NM_00109): 0.7071
- transcription level (fold), dehydrocholesterol reductase (NM_00136): 0.5743
- transcription level (fold), fibroblast growth factor 2 (basic) (NM_00200, Hs.284244): 0.5
- transcription level (fold), farnesyl diphosphate synthase (NM_00200, Hs.77393): 0.6598
- transcription level (fold), 3-hydroxy-3-methylglutaryl-Coenzyme a synthase 1 (soluble) (NM_00213): 0.3536
- transcription level (fold), meningioma (disrupted in balanced translocation) 1 (NM_00243): 0.6156
- transcription level (fold), Homo sapiens periplakin (PPL) (NM_00270): 0.6156
- transcription level (fold), H2B histone family, member Q (NM_00352): 0.5
- transcription level (fold), basic heliz-loop-helix domain containing, class B, 2 (NM_00367): 0.5743
- transcription level (fold), tumor necrosis factor (ligand) superfamily, member9 (NM_00381): 0.5743
- Decreased fold, mevalonate kinase (MVK) (NM_000431.1): 0.5
- Decreased fold, low density lipoprotein receptor (LDLR) (NM_000527.2): 0.5743
- transcription level (fold), UDP-N-acetylglucosamine-2-epimerase-N-acetrylmannosamine kinase (NM_00547): 0.5743
- transcription level (fold), Isocitrate dehydrogenase 1 (NADP+), soluble (NM_00589): 0.7071
- transcription level (fold), fatty acid desaturase 1 (NM_00593): 0.6598
- transcription level (fold), lipase, endothelial (NM_00603): 0.5359
- transcription level (fold), IGF-II mRNA-binding protein 3 (NM_00654): 0.4665
- transcription level (fold), emopamil-binding protein (sterol isomerase) (NM_00657): 0.6156
- transcription level (fold), serum-inducible kinase (NM_00662): 0.5743
- Decreased fold, acetyl-Coenzyme A carboxylase alpha (NM_000664.1): 0.5743
- Decreased fold, ATP citrate lyase (NM_001096.1): 0.5743
- transcription level (fold), hydroxysteroid (17-beta) dehydrogenase 7 (NM_01637): 0.4665
- Decreased fold, farnesyl pyrophosphate syntlietase (NM_002004.1): 0.6598
- Decreased fold, fatty-acid-Coenzyme A ligase long chain 3 (NM_004457.2): 0.7071
- Decreased fold, famesyl-diphosphate famesyltransferase 1 (NM_004462.1): 0.5359
- Decreased fold, stearoyl-CoA desaturase (SCD) (NM_005063.1): 0.5743
- transcription level (fold), seladin-1 (NM_014676): 0.6598
- Decreased fold, hydroxysteroid (17-beta) dehydrogenase 7 (NM_016371.1): 0.4665
- Decreased fold, fatty-acid-Coenzyme A ligase long chain 4 (NM_022977.1): 0.7071
- transcription level (fold), low density lipoprotein receptor (familial hypercholesterolemia) (S70123.1): 0.7071
- transcription level (fold), ATP citrate lyase (U18197.1): 0.5743
- transcription level (fold), cytochrome P450, 51 (lanosterol 14-alpha-demethylase) (U40053): 0.4665
- transcription level (fold), pinin, desmosome associated protein (U59479.1): 0.5359
